The test system of this assay is Jurkat human T cells viability, luminescence (cytotoxicity counterscreen). As to the kind of experiment: Jurkat T cell cytotoxicity, dose response, cytotoxicity control, luminescence (AID 1117277).

Active and inactive are the calls of the source. The rule behind the calls is not given here.

In the case of `O=C(C[N+]12CCC(CC1)C(OC(=O)c1ccccc1)C2)c1ccc([N+](=O)[O-])cc1` (stereo unspecified), the IC50 was > 83.3 µM (inactive).
